Results: patent US4925651A, “Radiofluoro-tyrosine derivatives, the preparation and use thereof” (priority 1988, dated 1990)
Like-named read-outs stand apart in the source and are kept apart here. One block for each compound: values may come before it.

What was measured:
[1] = Comparative uptake and incorporation of halogenated amino acids in mouse brain (40 min after i.v. injection); assay type: in vivo; conditions: mouse, in vivo, iv
Protocol: (§1) Typically, 0.75 to 1.5 MBq of L-2-[^18 F]-fluorotyrosine in 50 to 100 μl of isotonic solution were injected into the tail vein of NMRI mice.
(§2) After a defined incubation time, the animals were sacrificed and the brains were removed within 20 s and frozen in liquid nitrogen. Parts of the frontal cortex were removed (about 20 mg), weighed, homogenized in distilled water by ultrasonic treatment and, after 10 s, trichloroacetic acid (TCA) was added (final concentration >10%). The protein fraction precipitated by TCA was spun down and washed 2× with TCA solution, and the radioactivity in the combined supernatants and in the protein pellet was measured.
(§3) Results of comparative experiments on the incorporation of halogenated amino acids in mouse brain (40 min after i.v. injection) are compiled in the table which follows: […]

mouse brain [2] = assay: as above; assay type: in vivo
Protocol: as §1, §2, §3

striatum = assay: Analysis for catecholamine formation in the striatum; assay type: in vivo
Source text: (§4) Appropriate analysis in the striatum, the area of the brain which is highly permeated by dopaminergic nerve cells, has also ruled out the formation of catecholamines from 2-fluorotyrosine. Thus 2-[^18 F]-fluorotyrosine is an ideal tracer for the quantification of the rate of protein synthesis using a three-compartment model, which is relatively easy to handle mathematically and as is used for 2-[^18 F]-fluorodeoxyglucose in PET studies. The uptake of >1.6% of the injected dose per gram of tissue (see table below) is, moreover, adequate for PET investigations.

[3] = tested on: cerebral proteins (frontal cortex); assay: Fraction of radioactivity incorporated in cerebral proteins (TCA precipitation, frontal cortex) after tail vein injection; assay type: in vivo, NMRI mice
Protocol: as §1, §2

tissue = assay: Distribution of radioactivity and metabolite analysis in tissue up to two hours after injection; assay type: in vivo
Source text: as §4

brain tissue = assay: HPLC investigation of TCA supernatant for free 2-[^18 F]-fluorotyrosine in brain tissue; assay type: in vivo, NMRI mice; conditions: for proportion of free (unmetabolized) 2-fluorotyrosine of the total tissue activity: brain tissue supernatant, HPLC; for recovery of the activity: free plus protein-incorporated
Protocol: as §1, §2
The supernatant was investigated by HPLC (for conditions, see Example 1) for the proportion of free 2-[^18 F]-fluorotyrosine. It emerged from this that the activity not incorporated in proteins was present almost entirely as unmetabolized 2-fluorotyrosine.

[4] = tested on: cerebral protein synthesis; conditions: Coenen et al., cited from earlier work
mouse brain [5] = conditions: 40 min, footnote * Literature data; cited from earlier work
[6] = mouse brain, 40 min after i.v. injection, read-out: Uptake
[7] = mouse brain, 40 min after i.v. injection

SMILES: N[C@@H](Cc1ccc(O)cc1[18F])C(=O)O [2 - ^18 FTyr, 2-[^18 F]-fluorotyrosine]
tissue uptake at 40 min [1, 6]: 1.3 ± 0.005 %ID/g
tissue uptake at 40 min ([1]; refers to table, read-out: uptake of the injected dose per gram of tissue): > 1.6 %ID/g
cerebral incorporation rate (in words) (mouse brain [2]; after 40 min): comparable to that for the natural amino acids methionine and phenylalanine
Incorporation (mouse brain [2]; [7]): 62 ± 3 % of cerebral activity
formation of catecholamines (striatum): ruled out
fraction incorporated in cerebral proteins ([3]; 20 min after injection): 44±3%
fraction incorporated in cerebral proteins ([3]; 60 min after injection): 84%
incorporation in cerebral proteins (in words) ([3]; >1 h after the injection): almost quantitative
influence from redistributed labeled metabolites from the blood (tissue; in vivo): can be ruled out
distribution of radioactivity in tissue (tissue; up to two hours after injection): distributed only over the free fluorinated amino acid and the portion incorporated in protein
proportion of free (unmetabolized) 2-fluorotyrosine of the total tissue activity (brain tissue; 20 min): 51±3%
recovery of the activity (brain tissue; 20 min): 95±6%
proportion of free (unmetabolized) 2-fluorotyrosine of the total tissue activity (brain tissue; 60 min): 11±2%
recovery of the activity (brain tissue; 60 min): 95±4%
chemical form of the activity in brain tissue (brain tissue; HPLC of supernatant): present in brain tissue virtually only in two chemical forms

SMILES: N[C@@H](Cc1ccc(O)c(F)c1)C(=O)O [3 - ^18 FTyr, 3-fluorotyrosine]
tissue uptake at 40 min [1, 6]: 0.8 ± 0.005 %ID/g
Incorporation (mouse brain [2]; [7]): 26 ± 1 % of cerebral activity

SMILES: C[C@](N)(Cc1ccc(O)c([123I])c1)C(=O)O [3 - ^123 I-α-MeTyr, 3-iodo-α-methyltyrosine]
tissue uptake at 40 min [1]: 0.8 ± 0.1 %ID/g
Incorporation (mouse brain [2]; mouse, in vivo, iv): 18 ± 1 % of cerebral activity

SMILES: NC(Cc1ccc(O)c([123I])c1)C(=O)O (stereo not shown) [3 - ^123 ITyr]
tissue uptake at 40 min [1]: 0.2 ± 0.005 %ID/g
Incorporation (mouse brain [2]; mouse, in vivo, iv): 13 ± 4 % of cerebral activity

SMILES: NC(Cc1ccc([75Br])cc1)C(=O)O (stereo not shown) [4 - ^75 BrPhe]
tissue uptake at 40 min [1, 6]: 2 ± 0.4 %ID/g
Incorporation (mouse brain [2]; [7]): 17 ± 5 % of cerebral activity

SMILES: CC(C)C[C@H](N)C(=O)O [^14 C-Leu, leucine]
Incorporation (mouse brain [5]): 85 ± 4 % of cerebral activity

SMILES: N[C@@H](Cc1ccccc1)C(=O)O [^14 C-Phe, phenylalanine]
Incorporation (mouse brain [2]; [7]): 63 ± 2 % of cerebral activity

Continued, in another order:

tissue uptake at 40 min [1]: 2 ± 0.4 %ID/g
Incorporation (mouse brain [2]; mouse, in vivo, iv): 11 ± 2 % of cerebral activity
SMILES: NC(Cc1ccccc1[18F])C(=O)O (stereo not shown) [2 - ^18 FPhe]

tissue uptake at 40 min [1]: 2.4 ± 0.4 %ID/g
Incorporation (mouse brain [2]; mouse, in vivo, iv): 15 ± 1 % of cerebral activity
SMILES: NC(Cc1ccccc1[75Br])C(=O)O (stereo not shown) [2 - ^75 BrPhe]

tissue uptake at 40 min [1]: 1.5 ± 0.3 %ID/g
Incorporation (mouse brain [2]; mouse, in vivo, iv): 20 ± 2 % of cerebral activity
SMILES: NC(Cc1ccc([18F])cc1)C(=O)O (stereo not shown) [4 - ^18 FPhe, p-[^18 F]-fluorophenylalanine]
incorporation rate in cerebral protein (in words) [4]: relatively low
radioactivity in cerebral tissue assigned to an unidentified metabolite pool ([4]; animal model): about 20%

Incorporation (mouse brain [2]; mouse, in vivo, iv): 57 ± 3 % of cerebral activity
SMILES: CSCC[C@H](N)C(=O)O [^14 C-Met, methionine]
